Laboratory results published in patent publication US20120322886A1, “USE OF A SATURATED AMINES COMPOUND IN MANUFACTURE OF MEDICAMENTS FOR […] HEMATOPOIETIC STEM CELL” (Institute of Transfusion Medicine, Academy of Mili -tary …, priority 2009, published 2012).

Key:
[1] = tested on: CD34+ cells in peripheral blood; assay: Percentage of CD34+ cells in peripheral blood by flow cytometry; type: in vivo, C57 mice; settings: 5 mg/kg hypodermic injection, 4 h post injection, tail blood; compared to DMSO and G-CSF (FIG. 2)
Protocol: 9 C57 mice (Experimental animal center, Academy of Military Medical Sciences), male, were randomly divided into 3 groups: DMSO (Beijing Chemical Inc.) group with 3 mice, G-CSF (Xiamen Baote Biotechnology Inc.) group with 3 mice, TA01 group with 3 mice. Injection volume was calculated on the basis of 5 mg/kg body weight, and the medium for the injection was TE buffer with pH 7.5-8.5. At 4 h post hypodermic injection, 100 μL blood was harvested from tail and treated with RBC lysis buffer (Jingmei Biotechnology Inc.), wherein, the volume ratio of the blood to the RBC lysis buffer was 1:10. The two were uniformly mixed, stood for 10-15 min under room temperature, and then centrifuged for 6 min at 1500 rpm/min. After removing the supernatant, 100 ul 1% (v/v) serum (Hyclone Inc.) was added and mixed. Then 0.75 ul purified anti-mouse CD34 (Biolegend Inc) was added (operated on a superclean bench), mixed, and incubated for 1-2 h under room temperature. The mixture was added up to 1.5 ml with PBS containing 1% (v/v) serum, and then centrifuged for 5 min at 1500 rpm/min. After removing the supernatant, 100 ul 1% (v/v) serum was added and mixed. Then 2 ul Goat anti Mice antibody labeled with FITC (Beijing Zhongshanjinqiao Biotechnology Limited Co.) was added, mixed and incubated for 30 min under room temperature. […]

WBCs in peripheral blood = assay: Number of WBCs in peripheral blood (Sysmex Microcell Counter); type: in vivo, C57 mice; settings: 5 mg/kg hypodermic injection, 4 h post injection, tail blood; compared to DMSO and G-CSF (FIG. 3)
Protocol: 9 C57 mice, male, were randomly divided into 3 groups: DMSO group with 3 mice, G-CSF group with 3 mice, and TA01 group with 3 mice. Injection volume was calculated on the basis of 5 mg/kg body weight, and the medium for injection was TE buffer with pH 7.5-8.5. At 4 h post hypodermic injection, 10 μl blood was harvested from tail and treated with 2 ml cell diluting buffer (Jinnan Bolai Biotechnology Limited Co.). The number of WBCs was determined by a Sysmex Microcell Counter.

MNCs in peripheral blood = assay: CFU and CFU-GM generated by MNCs in peripheral blood (semisolid medium culture); type: in vivo, C57 mice; settings: 5 mg/kg hypodermic injection, blood at 4 h, MNCs cultured 7 days; compared to DMSO and G-CSF (FIG. 4)
Protocol: 9 C57 mice, male, were randomly divided into 3 groups: DMSO group with 3 mice, G-CSF group with 3 mice, TA01 group with 3 mice. Injection volume was calculated on the basis of 5 mg/kg body weight, and the medium for injection was TE buffer with pH 7.5-8.5. At 4 h post hypodermic injection, the eyeballs were extracted and the peripheral blood was collected into a 10 ml centrifuge tube which was rinsed with heparin (Tianjin Haoyang Bioproduct Technology Limited Co.) in advance, and then PBS (Hyclone Inc.) was added up to 5 ml and mixed. Mouse percoll (Tianjin Haoyang Bioproduct Technology Limited Co.) was preloaded into vials at 5 ml/vial (operated on a superclean bench), and then the blood mixed with PBS was slightly impregnated into the upper layer of the percoll and centrifuged for 20 min at 2000 rpm/min. Cells in the middle layer were transferred into a new 10 ml centrifuge tube which was filled up to 10 ml with PBS, and centrifuged for 5 min at 1500 rpm/min to remove PBS in the supernatant. The tube was filled up to 10 ml with PBS, centrifuged for another 5 min at 1500 rpm/min to remove PBS in the supernatant. Then, the tube was filled up to 1 ml with PBS. The number of cells was then counted and the number of the mononuclear cells (MNCs) per ml of the solution was calculated. […] Finally, CFU and CFU-GM were counted.

[2] = tested on: mice receiving a lethal irradiation; assay: Survival of lethally irradiated mice after transplant of mobilized peripheral blood MNCs; type: in vivo, C57 mice; settings: 7.0 Gy 60Co irradiation; tail vein injection of MNCs from donors given 5 mg/kg, 4 h; survival in 30 days; compared to DMSO and G-CSF (FIG. 5)
Protocol: 9 C57 mice, male, were randomly divided into 3 groups, and then received a whole body irradiation by ^60Co γ ray at 2.72 Gy/min with a volume of 7.0 Gy. 9 C57 mice, male, were randomly divided into 3 groups: DMSO group with 3 mice, G-CSF group with 3 mice, and TA01 group with 3 mice. Injection volume was calculated on the basis of 5 mg/kg body weight, and the medium for injection was TE buffer with pH 7.5-8.5. At 4 h post hypodermic injection, the eyeballs were extracted and peripheral blood was collected into a 10 ml centrifuge tube which was rinsed with heparin in advance, and then PBS was added up to 5 ml and mixed. Mouse percoll (Tianjin Haoyang Bioproduct Technology Limited Co.) was preloaded into vials at 5 ml/vial (operated on a superclean bench), and then the blood mixed with PBS was slightly impregnated to the upper layer of the percoll and centrifuged for 20 min at 2000 rpm/min. Cells in the middle layer were transferred into a new 10 ml centrifuge tube which was filled up to 10 ml with PBS, centrifuged for 5 min at 1500 rpm/min to remove PBS in the supernatant. The tube was filled up to 10 ml with PBS, and centrifuged for another 5 min at 1500 rpm/min to remove PBS in the supernatant. Then the tube was filled up to 0.5 ml with PBS. […] The number of survival mice in 30 days was counted.

hematopoietic stem cells = assay: Mobilization of hematopoietic stem cells into peripheral blood (overall conclusion); type: in vivo; settings: summary statement; verification processes for other compounds not described

## CN(C)CCN(CCN(C)C)CCN(C)C [TA01, Tris[2-(dimethylamino)ethyl]amine]
[1]
  percentage of CD34+ cells in peripheral blood: can increase the percentage of CD34+ cells in peripheral blood compared to DMSO and G-CSF
WBCs in peripheral blood
  number of WBCs in peripheral blood: can increase the number of WBCs in peripheral blood compared to DMSO and G-CSF
MNCs in peripheral blood
  number of CFU generated by MNCs in peripheral blood: can promote the numbers of both CFU and CFU-GM
  number of CFU-GM generated by MNCs in peripheral blood: can promote the numbers of both CFU and CFU-GM
[2]
  survival rate of mice receiving a lethal irradiation: survival rate of the mice receiving a lethal irradiation can be increased
Hematopoietic stem cells
  mobilization of hematopoietic stem cells into peripheral blood: can efficiently mobilize hematopoietic stem cells into peripheral blood
